From patent US6713077B1, “Control of shoot/foliar feeding pests with pesticide seed treatments” (Monsanto Technology, LLC, priority 1999, dated 2004)
Like-named read-outs stand apart in the source and are kept apart here.

Tests used:
[1] = cited from earlier work
black cutworm larvae [2] = assay: Example 5: stand reduction of corn by black cutworm, lambda cyhalothrin or tefluthrin seed treatment; format: in vivo; conditions: band w/ incorporation 30 (grams/hectare)
Protocol: A lambda-cyhalothrin seed treatment formulation was prepared from the WARRIOR T insecticide and corn seed was prepared and treated as described in Example 1, except that the treatment levels were 125, 228 and 358 gm active ingredient/100 kg seed. A tefluthrin seed treatment formulation was also prepared from RAZE 2.5 FS, which contains tefluthrin as the active ingredient, into water as a carrier. Treated and untreated seeds were planted and cultivated as described as described in Example 1. Again, FORCE 3GR was applied and incorporated into a 5 inch band on the soil surface at the time of planting. The tubs were overhead irrigated until the plants were infested with black cutworm larvae.
(§1) The corn plants were infested at 12 DAP, as described in Example 1. Plants were rated at 10 days after infestation (DAI) for the number of cut plants. The percent stand reduction due to plant cutting was calculated by dividing the number of cut plants into the number of plants present at infestation.

black cutworm larvae [3] = assay: Example 8: stand reduction of corn by black cutworm, RAZE versus WARRIOR T seed treatment; format: in vivo; conditions: band w/ incorporation 30 (grams/hectare)
Protocol: A lambda-cyhalothrin seed treatment formulation was prepared from WARRIOR T 11.4 CS formulation (Zeneca Ag Products, Wilmington, Del.), as described in Example 1. Also, a tefluthrin seed treatment formulation was prepared from RAZE […] formulation (available from Wilbur-Ellis Co.), by the same method. Each of these seed treatment formulations were applied for one minute at room temperature to twenty-five grams of Pioneer corn seed (Cultivar PN3394) in a rotostatic seed treater at the treatment rates noted in Table 9, below. The treated seeds were allowed to sit uncapped for four to twenty-four hours before planting.
Treated and untreated seeds (Pioneer hybrid PN3394) were planted in a soil mix consisting of Dupo silt loam, 30% Perlite, 20% coarse sand (WB-10 grade) in six groups of tubs (20 in. L×15 in. W×8 in. D). Twelve seeds were planted per tub and three tubs were planted for each treatment regimen. Soil applications of FORCE 3GR, which contains 3% tefluthrin as the active ingredient, were used for two sets of tubs containing untreated seeds. […]
(§2) The corn plants were infested at 12 DAP, which corresponds to late growth stage 11 by placing two black cutworm larvae at 3/4 instar on the soil surface near the base of the plant. […] The percent stand reduction due to plant cutting was calculated by dividing the number of cut plants into the number of plants present at infestation.

[4] = temperature not given; cited from earlier work
black cutworm larvae [5] = assay: Example 7: stand reduction of corn by black cutworm, bifenthrin, lambda-cyhalothrin and tefluthrin seed treatment; format: in vivo; conditions: seed treatment 209 gm AI/100 kg of seed
Protocol: A lambda-cyhalothrin seed treatment formulation was prepared from WARRIOR T 11.4 CS formulation (Zeneca Ag Products, Wilmington, Del.), as described in Example 1. A seed treatment formulation was also prepared by the method as described in Example 1, except from CAPTURE® 2 EC (bifenthrin; available from FMC). Also, a seed treatment formulation was prepared from RAZE 2.5 FS formulation (available from Wilbur-Ellis Co.), containing 26.8% tefluthrin. Each of these seed treatment formulations were applied for one minute at room temperature to twenty-five grams of Pioneer corn seed (Cultivar PN3394) in a rotostatic seed treater at the treatment rates noted in Table 8, below. The treated seeds were allowed to sit uncapped for four to twenty-four hours before planting.
Treated and untreated seeds (Pioneer hybrid PN3394) were planted in a soil mix consisting of Dupo silt loam, 30% Perlite, 20% coarse sand (WB-10 grade) in six groups of tubs (20 in. L×15 in. W×8 in. D). Twelve seeds were planted per tub and three tubs were planted for each treatment regimen. […]
as §2

black cutworm larvae [6] = assay: Example 4: stand reduction of corn by black cutworm in three soil types; format: in vivo; conditions: seed treatment 250 gm AI/100 kg of seed
Protocol: A lambda-cyhalothrin seed treatment formulation was prepared from WARRIOR T insecticide and corn seed was prepared and treated as described in Example 1, except that the treatment level was 250 gm active ingredient/100 kg seed. Treated and untreated seeds were planted and cultivated as described as described in Example 1. FORCE 3GR was applied and incorporated into a 5 inch band on the soil surface at the time of planting. The untreated seed—with and without tefluthrin banding—and the treated seed were planted in three different soil types. […] The tubs were overhead irrigated until the plants were infested with black cutworm larvae.
as §1

black cutworm larvae [7] = assay: Example 2: stand reduction of corn by black cutworm, tub test; format: in vivo
Protocol: A lambda-cyhalothrin seed treatment formulation was prepared from the WARRIOR T insecticide and corn seed was prepared and treated as described in Example 1, except that the treatment levels were 88, 185 and 381 gm active ingredient/100 kg seed. Treated and untreated seeds were planted and cultivated as described as described in Example 1. Again, FORCE 3GR was applied either in-furrow or incorporated into a 5 inch band on the soil surface at the time of planting. The tubs were overhead irrigated until the plants were infested with black cutworm larvae.
as §1

Cc1c(F)c(F)c(COC(=O)[C@@H]2[C@H](/C=C(\Cl)C(F)(F)F)C2(C)C)c(F)c1F (racemic) [Tefluthrin, (2,3,5,6-tetrafluoro-4-methylphenyl)-methyl-(1 alpha, 3 alpha)-(Z)-(±)-3-(2-chloro-3,3,3-trifluoro-1-propenyl)-2,2-dimethylcyclopropanecarboxylate]
Vapor pressure ([1]; 20° C.): 8 mPa | STAND REDUCTION (%, 10 days after infestation) (black cutworm larvae [2]): total protection | STAND REDUCTION (%, 10 days after infestation) (black cutworm larvae [3]): total protection

Cc1c(COC(=O)C2C(C=C(Cl)C(F)(F)F)C2(C)C)cccc1-c1ccccc1 (stereo not drawn) [Bifenthrin, (2-methyl [1,1′-biphenyl]-3-yl)methyl 3-(2-chloro-3,3,3-trifluoro-1-propenyl)-2,2-dimethyl-cyclopropanecarboxylate]
Vapor pressure ([1]; 25° C.): 0.024 mPa | Water solubility [4]: 0.1 µg/mL | STAND REDUCTION (%, 10 days after infestation) (black cutworm larvae [5]): total protection

CC1(C)[C@H](C(=O)O[C@H](C#N)c2cccc(Oc3ccccc3)c2)[C@@H]1/C=C(\Cl)C(F)(F)F [Lambda cyhalothrin, [1 alpha (s), 3 alpha(z)]-cyano(3-phenoxyphenyl)methyl-3-(2-chloro-3,3,3-trifluoro-1-propenyl)-2,2-dimethylcyclopropane carboxylate]
STAND REDUCTION (%, 10 days after infestation) (black cutworm larvae [6]; SOIL TYPE I): 80.1% | STAND REDUCTION (%, 10 days after infestation) (black cutworm larvae [6]; SOIL TYPE II): 39.8% | STAND REDUCTION (%, 10 days after infestation) (black cutworm larvae [6]; SOIL TYPE III): 72.4% | Vapor pressure ([1]; temperature not given): 2 E-4 mPa | STAND REDUCTION (%, 10 days after infestation) (black cutworm larvae [7]; seed treatment 88 gm AI/100 kg of seed): 19.4% | STAND REDUCTION (%, 10 days after infestation) (black cutworm larvae [7]; seed treatment 381 gm AI/100 kg of seed): total protection
